This passage reports viability and CC50 results from PubChem BioAssay AID493013 (Southern Research Specialized Biocontainment Screening …, 2011).

Active and inactive are the calls of the source. The rule behind the calls is not given here.

Tested on in the first assay: not listed separately
Kind of assay: mammalian cell cytotoxicity, dose response, cytotoxicity control, secondary assay, set 2 (AID 493013). To be noted: mammalian cell line viability, cytotoxicity counter-screen; at 100 µM (top of the series). Background: A counterscreen serves to expose hits that act by an unwanted route or on another target.
Turning to `CC(=O)Nc1ccc2nc(NC(=O)Cc3ccccc3)sc2c1`, the viability is 82.2% (inactive). On the same count and under the same terms, under `Oc1ccc2[nH]ccc2c1` stands 101% (inactive).

In the case of `COc1cccc(NC(=S)Nc2cc(C)cc(C)n2)c1`, the viability is 89.5% (inactive). For the compound `Cc1cc2cc(F)ccc2[nH]1`, the viability was 95% (inactive). Same read-out and setting: under `COc1ccc2nc(NC(=O)c3oc4ccccc4c3C)sc2c1` stands 80.8% (inactive); under `Cc1cc2cc(Cl)ccc2[nH]1`, 84.1% (inactive). With `COc1ccc(C(=O)Nc2ccc3nc(N4CCCCC4)cc(C)c3c2)c(OC)c1`, the viability was 92% (inactive).

With `CCOc1ccc2nc(NC(=O)COc3ccc(OC)cc3)sc2c1`, the viability is 102% (inactive). Still for that read-out and setting: under `Cc1ccc(OCC(=O)Nc2ccc(Cl)cc2)c(C)c1` stands 93.6% (inactive); under `Cc1ccc(OC(C)C(=O)Nc2ncccn2)c(C)c1` (centres undefined), 86.1% (inactive). On the same count and under the same terms, under `CC(=O)c1c(C)n(-c2cccc(Cl)c2)c2ccc(O)cc12` stands 78.9% (inactive); under `N/C(=N\c1nc2ccccc2o1)NC(=O)c1ccccc1Br`, 84.6% (inactive). Same read-out and setting: under `COc1ccc2nc(NC(=O)COc3c(C)cc(C)cc3C)sc2c1` stands 79.6% (inactive). As to `CCCOc1ccc2c(c1)c(C(C)=O)c(C)n2-c1ccccc1`, the viability was 97.1% (inactive). Same read-out and setting: under `O=C(OC(C(=O)Nc1ccc(Cl)cc1C(F)(F)F)c1ccccc1)C1=COCCO1` (centres undefined) stands 72.7% (inactive); under `COc1cccc(NC(=O)C2CC2)c1`, 102% (inactive); under `Cc1ccc(OCC(=O)Nc2nnn(C)n2)c(C)c1`, 85.2% (inactive).

As for `N/C(=N\c1nc2ccccc2o1)NC(=O)c1ccccc1F`, the viability is 96.4% (inactive). `COc1ccc2c(c1)c(C(C)=O)c(C)n2-c1ccccc1`: the viability is 92.5% (inactive). Same read-out and setting: the figure for `Cc1cc2cc(O)ccc2[nH]1` is 105% (inactive). The same measure, in the same setting: under `CC(=O)c1c(C)n(-c2ccccc2C)c2ccc(O)cc12` stands 82.3% (inactive); under `Cc1cccnc1NC(=S)NC(=O)c1cncc(Br)c1`, 106% (inactive). The same measure, in the same setting: under `O=C(COC(=O)C1=COCCO1)Nc1ccc2c(c1)OCO2` stands 89% (inactive); under `Cc1onc(-c2c(Cl)cccc2Cl)c1/C(N)=N/OC(=O)C1CC1`, 102% (inactive). As to `CC(=O)c1c(C)n(-c2ccccc2)c2ccc(OC(C)C)cc12`, the viability was 79.6% (inactive).

For the compound `Cc1ccccc1OCC(=O)Nc1ncccn1`, the viability was 100% (inactive). For the compound `Cc1cc(C)c(OCC(=O)Nc2nc3ccccc3[nH]2)c(C)c1`, the viability was 85.7% (inactive). Same read-out and setting: the figure for `O=C(O)CCC(=O)Nc1nc2ccccc2s1` is 98.8% (inactive). The same measure, in the same setting: the figure for `Cc1cc2ccccc2[nH]1` is 100% (inactive); for `COc1ccc2nc(NC(=O)COc3ccccc3C(C)C)sc2c1` it is 93.8% (inactive); for `COC(=O)c1ccc2nc(NC(=O)COc3ccccc3)sc2c1` it is 88.8% (inactive).

For `O=C(COc1ccc2ccccc2c1)Nc1nc2ccccc2[nH]1`, the viability is 91.9% (inactive). As for `Cc1cc(C)c(OCC(=O)Nc2nc3ccccc3s2)c(Cl)c1`, the viability was 83.2% (inactive).

As for `O=C(CSc1n[nH]c(=O)n1C1CC1)c1ccc2c(c1)OCCO2`, the viability is 94.5% (inactive). As to `O=C(Cc1ccccc1Cl)Nc1nc2ccccc2[nH]1`, the viability was 84.9% (inactive). The same measure, in the same setting: under `Cc1ccccc1OCC(=O)Nc1noc(-c2ccccc2)n1` stands 96.4% (inactive).

With `Cc1cccc(C)c1OCC(=O)Nc1nc2ccccc2s1`, the viability is 84.5% (inactive). Still for that read-out and setting: the figure for `CCOc1ccc2nc(NC(=O)Cc3ccc(OC)cc3)sc2c1` is 83.6% (inactive); for `CCOc1ccc(NC(=O)COc2ccc(C)cc2C)cc1` it is 78.7% (inactive). The same measure, in the same setting: the figure for `CCOc1ccc2nc(NC(=O)COc3ccccc3)sc2c1` is 76.4% (inactive); for `S=C(Nc1ccccc1)Nc1ccc(Cl)cn1` it is 97.2% (inactive). Same read-out and setting: the figure for `c1ccc(OCc2nnc(-c3ccccc3)o2)cc1` is 72.5% (inactive). As for `O=C(COC(=O)C1CC1)c1c[nH]c2ccccc12`, the viability was 95.5% (inactive). On the same count and under the same terms, the figure for `Cc1ccc(OCC(=O)Nc2cccc3c(NC(=O)COc4ccc(C)cc4C)cccc23)c(C)c1` is 96.3% (inactive); for `Cc1ccccc1OCC(=O)Nc1nnn(C)n1` it is 87.8% (inactive); for `CCc1ccc2nc(/N=C(\N)NC(=O)c3ccccc3)nc(C)c2c1` it is 81.6% (inactive). Turning to `O=C(CC12CC3CC(CC(C3)C1)C2)NCc1ccc(F)cc1`, the viability is 86.5% (inactive).

As to `CCOc1ccc2c(c1)c(C(C)=O)c(C)n2Cc1ccco1`, the viability was 94.5% (inactive). In the case of `CCOc1ccc2nc(NC(=O)COc3ccc(F)cc3)sc2c1`, the viability is 96.4% (inactive).

Take `Cc1ccc(OCC(=O)Nc2nc3c(Cl)cccc3s2)cc1`: the viability is 97% (inactive). Regarding `CN(NC(=O)c1c(Cl)cccc1Cl)c1cccc(Cl)n1`, the viability is 79.9% (inactive).

Consider `Cc1ccc(OCC(=O)Nc2nc3ccc(F)cc3s2)cc1`, for which the viability is 84.2% (inactive). Consider `COc1ccc2nc(NC(=O)COc3ccc(Cl)cc3)sc2c1`, for which the viability is 92.1% (inactive). As for `CC(=O)c1c(C)n(-c2ccccc2)c2ccc(O)cc12`, the viability was 80.4% (inactive). Still for that read-out and setting: under `COc1ccc2nc(NC(=O)COc3ccccc3)sc2c1` stands 83.9% (inactive); under `O=C(Cc1csc(-c2ccccc2F)n1)Nc1nc2ccccc2[nH]1`, 88.2% (inactive); under `Cc1cc(C)c(OCC(=O)Nc2nc3ccc(C)cc3s2)c(C)c1`, 87.7% (inactive). Same read-out and setting: the figure for `O=C(COc1ccccc1Cl)Nc1nc2ccccc2s1` is 73.1% (inactive); for `Cc1ccccc1OCC(=O)Nc1ncn[nH]1` it is 80.5% (inactive).

The test system of a further assay is mammalian cell line viability, cytotoxicity counter-screen. The description is as above.
Settings: not given
For `COc1ccc2nc(NC(=O)C(C)Oc3ccccc3)sc2c1` (centres undefined), the CC50 is 87.7 µM. Same read-out and setting: under `O=C(COc1ccccc1)Nc1nc2ccccc2s1` stands 66.7 µM; under `c1ccc(Nc2ncnc3c2oc2ccccc23)cc1`, 76.9 µM. The same measure, in the same setting: under `Cc1ccccc1OCC(=O)Nc1ccccc1N1CCCCC1` stands 51 µM.

Regarding `CCOc1ccc2nc(NC(=O)C3(c4ccccc4)CCCC3)sc2c1`, the CC50 was 62.3 µM.

As to `COc1ccccc1C(=O)N/C(N)=N/c1nc2ccccc2o1`, the 50% cytotoxic concentration (CC50) was 16.6 µM. With `Cc1ccc2oc(/N=C(\N)NC(=O)c3ccccc3)nc2c1`, the CC50 is 5.79 µM. Still for that read-out and setting: the figure for `COc1cccc(-c2ccc(-c3noc(-c4ccccc4F)n3)c(OC)n2)c1` is 46.7 µM; for `Cc1ccc2sc(NC(=O)COc3ccccc3)nc2c1C` it is 20.2 µM. Same read-out and setting: the figure for `CC(=O)Nc1ccc2nc(NC(=O)COc3ccccc3)sc2c1` is 49.8 µM. Take `O=C(CCS(=O)(=O)c1ccc(F)cc1)Nc1nnc(-c2cccs2)o1`: the CC50 was 41.6 µM.

Consider `CCOc1ccc2nc(NC(=O)COc3ccc(Cl)c(C)c3)sc2c1`, for which the CC50 is 38.6 µM. On the same count and under the same terms, the figure for `CCOc1ccc2c(c1)c(C(C)=O)c(C)n2-c1ccccc1` is 94.5 µM. On the same count and under the same terms, under `COc1ccc(Cl)cc1C(=O)Nc1nc2ccccc2[nH]1` stands 25.4 µM; under `CCOC(=O)c1cnc2cc(-c3ccc(C(C)(C)C)cc3)nn2c1N`, 74.6 µM; under `CC(C)(Oc1ccc(Cl)cc1)C(=O)Nc1nc2ccccc2s1`, 72.3 µM. On the same count and under the same terms, the figure for `Cc1ccccc1C(=O)Nc1nc2ccccc2[nH]1` is 71.4 µM.

As for `N/C(=N\c1nc2cc(Cl)ccc2o1)NC(=O)c1ccccc1`, the CC50 is 14.5 µM. On the same count and under the same terms, under `CC(C)Cn1c2c(c(O)c(C(=O)Nc3nccs3)c1=O)CCCC2` stands 78 µM. On the same count and under the same terms, under `COc1ccc2nc(NC(=O)COc3ccc(C)cc3)sc2c1` stands 29.8 µM; under `N/C(=N\c1nc2ccccc2o1)NC(=O)COc1ccc2ccccc2c1`, 37.3 µM; under `CC(Oc1ccc(Cl)cc1)C(=O)Nc1nc2ccccc2s1` (centres undefined), 46.4 µM. The same measure, in the same setting: the figure for `CCOc1ccc2nc(NC(=O)C(C)Oc3ccccc3F)sc2c1` (centres undefined) is 67.7 µM; for `CCCN1CC(O)=C(c2nc3ccccc3s2)C1=N` it is 90.5 µM; for `OCCCc1cn(-c2ccccc2)c2ccccc12` it is 90 µM.

For the compound `Cc1ccc(OCC(=O)Nc2ccc3c4c(cccc24)CC3)c(C)c1`, the cytotoxic concentration (CC50) is 27.2 µM. Still for that read-out and setting: under `Cc1c(OCc2ccc(C(=O)O)cc2)ccc2c(-c3ccccc3)cc(=O)oc12` stands 51.8 µM. On the same count and under the same terms, the figure for `O=C(Nc1nc2ccccc2[nH]1)c1ccc(Cl)c(Cl)c1` is 83.6 µM. The same measure, in the same setting: the figure for `N/C(=N\c1nc2ccccc2o1)NC(=O)c1ccc(F)cc1` is 12.5 µM; for `O=C(COc1ccc(Cl)cc1)Nc1nc2ccc(F)cc2s1` it is 57.2 µM. For `O=C(Nc1nc2ccccc2[nH]1)c1cc2cc(Br)ccc2o1`, the CC50 is 11.5 µM.

Consider `N/C(=N\c1nc2ccccc2o1)NC(=O)c1ccccc1`, for which the CC50 is 7.4 µM.

Regarding `O=C(COc1ccc2c3c(c(=O)oc2c1)CCC3)Nc1nc2ccccc2[nH]1`, the CC50 was 23.4 µM. On the same count and under the same terms, under `COC(=O)c1c(C)n(-c2ccccc2)c2ccc(O)cc12` stands 61.3 µM; under `CCC(CC)c1nnc(NC(=O)c2ccc(N3CCCCC3)c([N+](=O)[O-])c2)s1`, 41.3 µM; under `O=C(COc1cccc2ccccc12)Nc1nc2ccccc2s1`, 77.7 µM. In the case of `Cc1ccccc1OCC(=O)Nc1ccccc1-c1ccccc1`, the CC50 was 77 µM.

With `CCOc1ccc2c(c1)c(C(C)=O)c(C)n2-c1ccccc1Cl`, the 50% cytotoxic concentration (CC50) was 47.7 µM.

On to `O=C(Nc1ccccc1)Nc1csc2ccccc12`, for which the CC50 is 31.9 µM. The same measure, in the same setting: the figure for `COC(=O)c1sc(-c2ccc(C(C)(C)C)cc2)cc1NC(=O)CCC(=O)O` is 64.7 µM.

The term viability denotes a read-out of living cells in per cent, often relative to untreated cells. What is called CC50 is the concentration that lowers cell viability or growth by half.
